Where a SMILES comes first, the peptide text is derived from it. Bridges are numbered along the chain shown (N, C = ends). Where no end group is shown, it is not given here.
System: cultured vascular smooth muscle cells (VSMC) derived from the aortas of rats
Test: cGMP producing activity in cultured VSMC (cGMP radioimmunoassay)
Type: cell-based, rat
Details: for cGMP producing activity (% increase for 1 μm): specific activity compared to 1 μm α-hANP (2000 fmol/400000 cells) = 100, peptide at 1 μm; for cGMP producing activity (in words): rat VSMC, comparison with CNP-22 or α-hANP
Experimental: 1-1: Measurement of CGMP Producing Activity
The above-mentioned activity of compounds synthesized according to the present invention was measured by the methods of Hirata et al. (Biochem. Biophys. Res. Commun., 128, 538, 1985) and Scarborough et al. (J. Biol. Chem., 261, 12960, 1986). The cells used were cultured vascular smooth muscle cells (hereunder abbreviated as VSMC) derived from the aortas of rats. From 10^-9 to 10^-6 M of α-hANP or a 20 peptide of interest was incubated together with VSMC and the amount cGMP produced was measured by cGMP radioimmunoassay. Percent maximum reactivity for each peptide, with the value of maximum reactivity for α-hANP being taken as 100%, was used as an indicator of activity.

**Q.** “pCNP-53: porcine CNP-53, CNP-22 with 31 amino acid residues attached to the N-terminus (DLRVDTKSRAAWARLLHEHPNARKYKGGNKKGLSKGCFGLKLDRIGSMSGLGC; disulfide 37-53 (inferred); ends not checked; UniProt P18104 74-126, looked up) [reference compound]” was tested. Which “cGMP producing activity (% increase for 1 μm)” value did it give?
**A.** 524%

**Q.** Which “cGMP producing activity (in words)” value does the source give for `CC[C@H](C)[C@@H]1NC(=O)[C@H](CCCNC(=N)N)NC(=O)[C@H](CC(=O)O)NC(=O)[C@H](CCSC)NC(=O)[C@H](CCCNC(=N)N)NC(=O)CNC(=O)CNC(=O)[C@H](Cc2ccccc2)NC(=O)[C@@H](NC(=O)[C@H](CO)NC(=O)[C@H](CO)NC(=O)[C@H](CCCNC(=N)N)NC(=O)[C@H](CCCNC(=N)N)NC(=O)[C@H](CC(C)C)NC(=O)[C@@H](N)CO)CSSC[C@@H](C(=O)O)NC(=O)CNC(=O)[C@H](CC(C)C)NC(=O)CNC(=O)[C@H](CO)NC(=O)[C@H](CCC(N)=O)NC(=O)[C@H](C)NC(=O)CNC1=O` [Compound 1] here?
**A.** only a weak cGMP producing activity at a level comparable to α-hANP

**Q.** And the “cGMP producing activity (% increase for 1 μm)” value?
**A.** 62%

**Q.** What does the source list for GLSKGCpC1FGLKLDRIGSMSGLGC [Compound 16]?
**A.** cGMP producing activity (in words): stronger activity than CNP-22; cGMP producing activity (% increase for 1 μm): 688%

**Q.** For `CC[C@H](C)[C@@H]1NC(=O)[C@H](CCCNC(=N)N)NC(=O)[C@H](CC(=O)O)NC(=O)[C@H](CCSC)NC(=O)[C@H](CCCNC(=N)N)NC(=O)[C@H](CC(C)C)NC(=O)CNC(=O)[C@H](Cc2ccccc2)NC(=O)[C@@H](NC(=O)CNC(=O)[C@H](CCCCN)NC(=O)[C@H](CO)NC(=O)[C@H](CC(C)C)NC(=O)CN)CSSC[C@@H](C(=O)O)NC(=O)CNC(=O)[C@H](CC(C)C)NC(=O)CNC(=O)[C@H](CO)NC(=O)[C@H](CCSC)NC(=O)[C@H](CO)NC(=O)CNC1=O` [Compound 12] (H-GLSKGCFGLRMDRIGSMSGLGC-OH; disulfide 6-22), which “cGMP producing activity (% increase for 1 μm)” value is on record?
**A.** 273%

**Q.** With `CC[C@H](C)[C@@H]1NC(=O)[C@H](CCCNC(=N)N)NC(=O)[C@H](CC(=O)O)NC(=O)[C@H](CC(C)C)NC(=O)[C@H](CCCCN)NC(=O)[C@H](CC(C)C)NC(=O)CNC(=O)[C@H](Cc2ccccc2)NC(=O)[C@@H](NC(=O)[C@H](CO)NC(=O)[C@H](CO)NC(=O)[C@H](CCCNC(=N)N)NC(=O)[C@H](CCCNC(=N)N)NC(=O)[C@H](CC(C)C)NC(=O)[C@@H](N)CO)CSSC[C@@H](C(=O)O)NC(=O)CNC(=O)[C@H](CC(C)C)NC(=O)CNC(=O)[C@H](CO)NC(=O)[C@H](CCSC)NC(=O)[C@H](CO)NC(=O)CNC1=O` [Compound 4] (H-SLRRSSCFGLKLDRIGSMSGLGC-OH; disulfide 7-23) as the molecule, how does the “cGMP producing activity (in words)” value read?
**A.** strong cGMP producing activity at a comparable level to that exhibited by CNP-22

**Q.** And the “cGMP producing activity (% increase for 1 μm)” value?
**A.** 663%

**Q.** What does the source list for `CC[C@H](C)[C@H](NC(=O)[C@H](CCCNC(=N)N)NC(=O)[C@H](CC(=O)O)NC(=O)[C@H](CC(C)C)NC(=O)[C@H](CCCCN)NC(=O)[C@H](CC(C)C)NC(=O)CNC(=O)[C@H](Cc1ccccc1)NC(=O)[C@H](CSC)NC(=O)CNC(=O)[C@H](CCCCN)NC(=O)[C@H](CO)NC(=O)[C@H](CC(C)C)NC(=O)CN)C(=O)NCC(=O)N[C@@H](CO)C(=O)N[C@@H](CCSC)C(=O)N[C@@H](CO)C(=O)NCC(=O)N[C@@H](CC(C)C)C(=O)NCC(=O)N[C@@H](CSC)C(=O)O` [Compound 19, H-Gly-Leu-Ser-Lys-Gly-Cys(Me)-Phe-Gly-Leu-Lys-Leu-Asp-Arg-Ile-Gly-Ser-Met- Ser-Gly-Leu-Gly-Cys(Me)-OH]?
**A.** cGMP producing activity (in words): hardly reduced the cGMP producing activity; cGMP producing activity (% increase for 1 μm): 38%
